Measured values published in article PMC9911388, “Secondary metabolic profiling of Serratia marcescens NP10 reveals new stephensiolides and glucosamine derivatives with bacterial membrane activity” (Scientific Reports, 2023).

Assays:
[1] = UPLC C18 retention time used as measure of hydrophobicity; type: physicochemical; settings: chromatographic; UPLC-MS of NP10 crude extract; C18 Acquity UPLC HSS T3 1.8 μm, 2.1 × 150 mm; H2O/MeCN with 0.1% formic acid; 40 to 95% B from 0.5 to 15 min; 0.300 mL/min
Description: The pooled NP10 crude extract was analysed using UPLC-MS^E at the Liquid Chromatography Mass Spectrometry (LCMS) unit at the Central Analytical Facility (CAF, SU) as outlined in Clements-Decker et al.[4]. Briefly, the UPLC-MS^E was conducted on a Waters Synapt G2 high resolution mass spectrometer linked to an Acquity UPLC™ (Waters Corporation, Milford, USA). Three microlitres (1.00 mg/mL) was separated on an UPLC C18 reverse-phase analytical column (Acquity UPLC® HSS T3, 1.8 μm particle size, 2.1 × 150 mm, Waters Corporation, Dublin, Ireland). The UPLC was conducted with analytical quality H2O containing 0.1% (v/v) formic acid as solution A and MeCN containing 0.1% (v/v) formic acid as solution B at a flow rate of 0.300 mL/min as follows: 60% A from 0 to 0.5 min for loading, linear gradient from 40 to 95% (B) from 0.5 to 15 min and 95 to 40% (B) from 15 to 18 min. The positive mode ESI conditions included: 2.5 kV capillary voltage, 15 V cone voltage, 120 °C source temperature, desolvation temperature of 275 °C, 50 L/h cone gas flow, 650 L/h desolvation gas flow, and m/z range of 200 to 2000 in centroid mode.

S. aureus RN4220 [2] = experiment: Resazurin broth microdilution assay (resazurin vitality assay); type: cell-based, Staphylococcus aureus; settings: for MIC: RP-HPLC purified fractions, MIC = concentration giving ≥ 90% inhibition of growth by fluorometric reading, range 9.8 to 625 µg/mL, 1 h at 37 °C, then resazurin 1.5 h, triplicate, independent duplicate experiments; for IC50: derived from sigmoidal dose-response curves (GraphPad Prism, nonlinear regression, best-fit)
Description: The RP-HPLC purified fractions were tested for antibacterial activity using a broth microdilution assay coupled with the metabolic dye, resazurin[20] against S. aureus RN4220. The principle of the assay was based on the rate of reduction of the resazurin dye to resorufin, with survival of the cell equated to an increased conversion of this dye, while a decreased rate of conversion indicates impairment of cellular metabolism and was thus equated to cell death. Briefly, the test strain was inoculated into 10 mL of cation adjusted-Mueller Hinton broth (Sigma-Aldrich) (CA-MHB containing […]) and incubated at 37 °C for 18 to 24 h. Following overnight incubation, the culture was diluted into the respective media and grown to mid-log phase to obtain an optical density (OD) at 0.3 (± 1.4 × 10^8 cells mL^-1) determined at 600 nm.
The RP-HPLC fractions were then diluted in MeCN to a concentration of […]. Fifty microlitres of each fraction was dispensed into the first row of the respective wells of a clear Greiner CELLSTAR® 96-well culture plate (Merck, Johannesburg, South Africa) containing 50 μL of analytical quality H2O, in triplicate. A microdilution was performed in the 96-well culture in 50 μL of sterile analytical quality H2O in each well and the plate was dried at 50 °C for 18 to 24 h to remove the solvent. Thereafter, 10 μL of target cells in mid-log phase at the adjusted OD was dispensed into each well, resulting in a final antimicrobial concentration range of each fraction from 9.8 to 625 µg/mL and incubated for 1 h at 37 °C. After 1 h incubation, 90 μL of phosphate buffered saline (PBS) was added to each well, followed by 10 μL of resazurin [prepared to a stock solution 0.3 mg/mL in PBS; Sigma-Aldrich (St Louis, MO, USA)]. The plate was then incubated at 37 °C for 1.5 h. Finally, fluorometric readings of the plate were conducted using a Tecan Spark 10 M Multimode Microplate Reader at 560 nm excitation wavelength and 590 nm emission wavelength. Sterile broth and the OD adjusted inoculum were included in the assay as a positive control, while sterile broth was included as a negative control. Tests were performed in triplicate, with independent duplicate experiments.
The percentage inhibition was calculated as described by van Rensburg et al.[20]. […] The MIC vs retention time was plotted using Graphpad Prism version 3.01 for Windows [GraphPad Software, San Diego, USA (www.graphpad.com)].

S. aureus RN4220 [3] = experiment: Membrane depolarisation assay: DiSC3(5); type: cell-based, Staphylococcus aureus; settings: for Time to membrane depolarisation / Time to two-fold increase in DiSC3(5) fluorescent signal: at MIC; for Time to membrane depolarisation: DiSC3(5) assay; for Time to two-fold increase in DiSC3(5) fluorescent signal: from the initial reading at 120 s; for DiSC3(5) fluorescence (membrane depolarisation): ½MIC, MIC and two-fold MIC, DiSC3(5) 0.4 µM, read over 12 min
Description: To gain insight into whether stephensiolides and glucosamine derivatives cause membrane depolarisation of S. aureus, membrane potential was assessed by monitoring the release of the voltage-sensitive dye 3,3′-dipropylthiadicarbocyanine iodide [DiSC3(5)][25],[26].
The membrane depolarisation capabilities (ability to disrupt membrane potential) of GluA, GluC, StpK and StpU against S. aureus RN4220 was determined using the voltage-sensitive fluorescent probe, 3,3'-dipropylthiadicarbocyanine iodide [DiSC3(5)][25],[39]. Due to the cationic charge and hydrophobic nature of DiSC3(5), the fluorescent dye can penetrate and accumulate in lipid bilayers until Nernstian equilibrium is reached, resulting in the quenching of the fluorescent signal. Once depolarisation occurs (i.e., changes in ion permeability and dissipating transmembrane potential), the dye is rapidly released into the medium and subsequently results in the dequenching of the fluorescent signal. Briefly, black 96 well plates were prepared with the selected four compounds at two-fold MIC, MIC and ½MIC as described in the “Resazurin Broth Microdilution Assay” section. The S. aureus RN4220 strain was prepared in CA-MHB and grown to mid-log phase to obtain an OD600 of 0.5–0.6. Cells were harvested by centrifugation at 3000 rpm for 10 min and resuspended in HEPES buffer (5 mM, pH 7.4, containing 20 mM glucose; 100 mM KCl) to OD600 of 0.05. Thereafter, DiSC3(5) (stock concentration of 400 µM in 100% DMSO) was added to the cell suspension to a final concentration of 0.4 µM and cells were incubated in the dark at room temperature for 60 min. Cell suspensions (100 µL) were then dispensed into the wells of the 96 well plate containing the compounds. Sterile broth and the OD adjusted inoculum with DiSC3(5) were included as a non-fluorescent control, sterile broth with DiSC3(5) was included as a sterility control, and melittin was included as membrane depolarisation control. Fluorometric readings of the plate were conducted in 2 min intervals over 12 min (readings began 120 s after cells were added to the compounds) using a Tecan Spark at 622 nm excitation wavelength and 670 nm emission wavelength.

S. aureus RN4220 [4] = experiment: Membrane permeability assay: propidium iodide uptake; type: cell-based, Staphylococcus aureus; settings: PI 10 µg/mL; for Time to two-fold increase in PI fluorescence from the initial reading: at MIC; for PI fluorescence (membrane permeabilisation): ½MIC and MIC, read over 60 min
Description: To gain insight into whether stephensiolides and glucosamine derivatives cause increased membrane permeability by forming lesions within the cell membrane of S. aureus, membrane permeability was assessed by monitoring the influx of propidium iodide (PI) and subsequent staining of nucleic acids within the cell, resulting in a fluorescent signal[23],[24]. Fluorescence was measured for 1 h at the MIC and ½MIC of compounds 12, 14, 22 and 26 (Fig. 5a and b).
The membrane permeability capabilities of GluA, GluC, StpK and StpU on S. aureus RN4220 was determined using propidium iodide (PI) (Sigma-Aldrich; St. Louis, MO, USA)[23]. This fluorescent dye can only enter bacterial cells through membrane lesions that are big enough to allow the large molecule (PI has a molecular mass of 668.087 g/mol) to pass through, thus providing an indication of changes in membrane permeability. Briefly, black Greiner CELLSTAR 96-well plates (Merck, Johannesburg, South Africa) were prepared with the selected four compounds at MIC and ½MIC and dried as described in the “Resazurin Broth Microdilution Assay” section. The S. aureus RN4220 strain was prepared in CA-MHB and grown to mid-log phase (OD600 of 0.5–0.6) and diluted to OD600 of 0.3. Propidium iodide (stock concentration of 1 mg/mL in water) was added to the cell suspension to a final concentration of 10 µg/mL and cells were incubated in the dark at room temperature for 10 min. Thereafter, 100 µL of OD adjusted PI cells in mid-log phase was dispensed into each well. Sterile broth and the OD adjusted inoculum with PI were included as a positive control, while sterile broth with PI was included as a negative control. Melittin served as a positive lytic control. Fluorometric readings of the plate were conducted in 2 min intervals over 60 min (readings began 120 s after cells were added to the compounds) using a Tecan Spark at 535 nm excitation wavelength and 617 nm emission wavelength.

Stephensiolide X [Compound 16]
Rt (retention time, hydrophobicity) [1]: 10.87 min

Stephensiolide P [Compound 7]
Rt (retention time, hydrophobicity) [1]: 7.00 min

Stephensiolide T [Compound 11]
MIC (S. aureus RN4220 [2]): ≥ 300 µg/mL
MIC (S. aureus RN4220 [2]; listed as StpT): no activity observed
Rt (retention time, hydrophobicity) [1]: 8.92 min

Stephensiolide R [Compound 9]
MIC (S. aureus RN4220 [2]): ≥ 300 µg/mL
Rt (retention time, hydrophobicity) [1]: 8.79 min

Stephensiolide Y [Compound 17]
Rt (retention time, hydrophobicity) [1]: 11.88 min

Stephensiolide N [Compound 3]
MIC (S. aureus RN4220 [2]): ≥ 300 µg/mL
Rt (retention time, hydrophobicity) [1]: 7.17 min

Stephensiolide O [Compound 6]
Rt (retention time, hydrophobicity) [1]: 6.28 min

Stephensiolide V [Compound 13]
Rt (retention time, hydrophobicity) [1]: 9.74 min

Stephensiolide K [Compound 14]
MIC (S. aureus RN4220 [2]): 39 µg/mL
IC50 (S. aureus RN4220 [2]): 25 µg/mL
Rt (retention time, hydrophobicity) [1]: 10.37 min
Time to membrane depolarisation (S. aureus RN4220 [3]): ≤ 12 min
Time to two-fold increase in DiSC3(5) fluorescent signal (S. aureus RN4220 [3]): 720 s
DiSC3(5) fluorescence (membrane depolarisation) (S. aureus RN4220 [3]): induced an increase in DiSC3(5) fluorescence at all concentrations tested
Time to two-fold increase in PI fluorescence from the initial reading (S. aureus RN4220 [4]): ≤ 36 min
PI fluorescence (membrane permeabilisation) (S. aureus RN4220 [4]): induced an increase in PI fluorescence over time

melittin [reference compound]
Time to rapid depolarisation (control) (S. aureus RN4220 [3]; depolarisation control): ≤ 240 s
PI fluorescence (membrane permeabilisation) (S. aureus RN4220 [4]): expected increase in fluorescence signal

Stephensiolide S [Compound 10]
Rt (retention time, hydrophobicity) [1]: 8.01 min

Stephensiolide W [Compound 15]
Rt (retention time, hydrophobicity) [1]: 10.31 min

Stephensiolide L [Compound 1]
Rt (retention time, hydrophobicity) [1]: 5.46 min

Stephensiolide U [Compound 12]
MIC (S. aureus RN4220 [2]): 78 µg/mL
IC50 (S. aureus RN4220 [2]): 53 µg/mL
Rt (retention time, hydrophobicity) [1]: 9.57 min
Time to membrane depolarisation (S. aureus RN4220 [3]): ≤ 8 min
Time to two-fold increase in DiSC3(5) fluorescent signal (S. aureus RN4220 [3]): 480 s
DiSC3(5) fluorescence (membrane depolarisation) (S. aureus RN4220 [3]): induced an increase in DiSC3(5) fluorescence at all concentrations tested
Time to two-fold increase in PI fluorescence from the initial reading (S. aureus RN4220 [4]): ≤ 28 min
PI fluorescence (membrane permeabilisation) (S. aureus RN4220 [4]): induced an increase in PI fluorescence over time

Stephensiolide M [Compound 2]
Rt (retention time, hydrophobicity) [1]: 6.45 min

Stephensiolide Q [Compound 8]
MIC (S. aureus RN4220 [2]): ≥ 300 µg/mL
Rt (retention time, hydrophobicity) [1]: 8.09 min
